US5147876A, “2,6-di,2,4,6-, 2,5,6-tri and 2,4,5,6-tetra-substituted pyrimidines, their pharmaceutically acceptable salts, pharmaceutical compositions containing same and their use in the treatment of neurological diseases” (Mitsui Petrochemical Industries, Ltd., priority 1988, dated 1992)

System: neuro-2a (mouse neuroblastoma cells)
Assay: Action on neuro-2a: proportion of cells containing outgrown neurites
Type: cell-based
Details: mean ± S.D.
Protocol: The effects of the compounds of this invention on neuroblastoma cells were examined by the following method.
Mouse neuro 2a cells in the logarithmic growth period in the Dulbecco's modified Eagle's medium DMEM, containing 100 units/ml of penicillin G sodium and 100 micrograms/ml of streptomycin sulfate]containing 10 % of FCS were seeded in a 48-well plate so that the number of cells was 1,000 cells/well, and cultured for one day in 0.25 ml of the culture fluid in each well in an incubator containing 5 % of carbon dioxide gas in air at 37° C. Then, a 4 % aqueous glutaraldehyde solution in the same amount as a medium (0.25 ml) was added, and the culture fluid was left to stand at room temperature for 2 hours to fix the cells. After washing with water, a 0.05 % aqueous solution of methylene blue was added to stain the cells Under a microscope, the number of cells containing outgrown neurites (cells having at least one neurite with a length of at least two times as large as the long diameter of the cell) was counted visually, and the proportion of these cells in the entire cells was calculated. The well was observed over 5 or more visual fields (at least 2 % of the entire surface area of the well) continuous to the left and right from a mark put at the center of the well, and more than 200 cells was counted. One drug compound was used in 6 different concentrations at most, and three runs were conducted for each concentrations.

Row | Structure (SMILES) | Number of cells having neurites with a length at least two times the diameter of each cell/total number of cells (0.03 mM) [%] | Number of cells having neurites with a length at least two times the diameter of each cell/total number of cells (0.1 mM) [%] | Number of cells having neurites with a length at least two times the diameter of each cell/total number of cells (0.3 mM) [%] | other results
1 | CC1CCN(c2nccc(N(C(=O)c3ccccc3)c3ccccc3)n2)CC1.Cc1ccc(S(=O)(=O)O)cc1 [Compound 150] | 9.3 ± 1.9 | 13.6 ± 1.2 | 6.6 ± 3.0 | 
2 | CN(C(=O)c1ccccc1)c1ccnc(N2CCC(c3ccccc3)CC2)n1 [Compound 165] |  | 41.0 ± 0.7 | 12.4 ± 1.8 | 
3 | CN(C(=O)c1ccccc1)c1ccnc(N2CCC(c3ccccc3)CC2)n1 [Compound 166] |  | 36.8 ± 7.1 | 13.4 ± 4.0 | 
4 | CN(C(=O)c1ccccc1)c1ccnc(N2CCC(c3ccccc3)CC2)n1 [Compound 167] |  | 22.5 ± 3.4 | 9.3 ± 2.3 | 
5 | Cc1ccc(C(=O)N(C)c2ccnc(N3CCC(c4ccccc4)CC3)n2)cc1 [Compound 171-3] |  | 28.8 ± 3.1 | 19.5 ± 7.0 | 
6 | CN(C(=O)c1ccccc1)c1ccnc(N2CCC(c3ccccc3)CC2)n1 [Compound 171] |  | 37.1 ± 1.9 | 8.8 ± 2.6 | 
7 | CN(C(=O)c1ccccc1)c1ccnc(N2CCC(C(=O)c3ccccc3)CC2)n1 [Compound 306] | 7.7 ± 0.5 | 2.8 ± 0.8 |  | 
8 | CN(C(=O)c1ccccc1)c1nccc(N2CCC(C(C)(C)C)CC2)n1 [Compound 620] | 4.0 ± 1.3 |  |  | Number of cells having neurites with a length at least two times the diameter of each cell/total number of cells (0.01 mM): 4.7 ± 0.4%
9 | CCN(C(=O)c1ccccc1)c1nccc(N2CCC(c3ccccc3)CC2)n1 [Compound 636] | 12.1 ± 3.4 | 8.9 ± 5.2 |  | 
10 | CC(C)N(C(=O)c1ccccc1)c1nccc(N2CCC(c3ccccc3)CC2)n1 [Compound 652] | 6.1 ± 0.6 | 12.5 ± 2.8 |  | 
11 | CC(C)N(Cc1ccccc1)c1nccc(N(C)C(=O)c2ccccc2)n1 [Compound 662] |  | 3.1 ± 1.6 | 2.6 ± 0.9 | 
12 | CN(C(=O)c1ccc([N+](=O)[O-])cc1)c1nccc(N2CCC(c3ccccc3)CC2)n1 [Compound 676] |  |  | 6.0 ± 1.1 | Number of cells having neurites with a length at least two times the diameter of each cell/total number of cells (1 mM): 4.2 ± 2.1%
13 | CN(C(=O)c1ccccc1)c1nccc(N2CCC(Cc3ccccc3)CC2)n1 [Compound 692] | 5.8 ± 0.9 | 11.1 ± 2.9 |  | 
14 | COC(=O)c1cnc(NC(C)C)nc1C [Compound 800, 2-isopropylamino-4-methyl-5-methoxycarbonylpyrimidine] |  |  | 11.4 ± 1.2 | Number of cells having neurites with a length at least two times the diameter of each cell/total number of cells (1 mM): 25.7 ± 1.9%; Number of cells having neurites with a length at least two times the diameter of each cell/total number of cells (3 mM): 22.3 ± 0.7%; Number of cells having neurites with a length at least two times the diameter of each cell/total number of cells (10 mM): 16.9 ± 0.8%
15 | CCOC(=O)c1cnc(N2CCCCC2)nc1CSC [Compound 816] | 4.7 ± 2.1 | 4.0 ± 0.3 |  | 
16 | CNc1ccnc(N2CCCc3ccccc32)n1 [Compound 1034] | 3.9 ± 2.8 | 7.6 ± 2.1 | 11.3 ± 1.6 | 
17 | CNc1ccnc(N2CCc3ccccc3C2)n1 [Compound 1038] | 2.2 ± 0.4 | 2.9 ± 0.3 |  | 
18 | CNc1nc(N2CCC(c3ccccc3)CC2)ncc1C [Compound 1098] | 10.2 ± 0.9 | 5.7 ± 2.0 |  | Number of cells having neurites with a length at least two times the diameter of each cell/total number of cells (0.01 mM): 5.3 ± 1.4%

Row | Structure (SMILES) | Number of cells having neurites with a length at least two times the diameter of each cell/total number of cells (0.03 mM) [%] | Number of cells having neurites with a length at least two times the diameter of each cell/total number of cells (0.1 mM) [%] | Number of cells having neurites with a length at least two times the diameter of each cell/total number of cells (0.3 mM) [%] | other results
19 | CNc1nc(N2CCCc3ccccc32)ncc1C [Compound 1102] |  | 11.9 ± 0.7 | 10.1 ± 3.0 | 
20 | CNc1nc(C)cc(N2CCCCC2)n1 [Compound 1110] | 4.4 ± 0.3 | 6.3 ± 4.4 | 16.5 ± 2.1 | Number of cells having neurites with a length at least two times the diameter of each cell/total number of cells (0.01 mM): 3.4 ± 1.1%
21 | CNc1nccc(N2CCC(c3ccccc3)CC2)n1 [Compound 1122] | 10.2 ± 3.8 |  |  | Number of cells having neurites with a length at least two times the diameter of each cell/total number of cells (0.01 mM): 4.2 ± 2.1%
22 | CNc1nccc(N2CCc3ccccc3C2)n1 [Compound 1130] | 1.8 ± 0.5 | 2.0 ± 0.3 |  | 
23 | Cc1ccc(S(=O)(=O)N(C)c2ccnc(N3CCC(c4ccccc4)CC3)n2)cc1 [Compound 2012] | 6.6 ± 1.2 |  | 6.6 ± 3.1 | 
24 | CN(C(=O)c1ccccc1)c1ccnc(N2CCC(N3CCCCC3)CC2)n1 [Compound 2052] | 3.7 ± 0.4 |  |  | Number of cells having neurites with a length at least two times the diameter of each cell/total number of cells (0.01 mM): 4.6 ± 2.1%
25 | CN(C(=O)c1ccccc1)c1ccnc(N2CCC(O)CC2)n1 [Compound 2060] | 3.6 ± 0.1 |  |  | Number of cells having neurites with a length at least two times the diameter of each cell/total number of cells (1 mM): 7.6 ± 0.7%
26 | CN(C(=O)c1ccccc1)c1ccnc(N2CCC(c3ccc([N+](=O)[O-])cc3)CC2)n1 [Compound 2076] | 1.9 ± 1.3 |  |  | Number of cells having neurites with a length at least two times the diameter of each cell/total number of cells (0.01 mM): 4.8 ± 1.4%
27 | CCOC(=O)C1CCN(c2nccc(N(C)C(=O)c3ccccc3)n2)CC1 [Compound 2100] | 4.4 ± 0.8 | 4.7 ± 1.4 |  | 
28 | CN(C(=O)c1ccccc1)c1ccnc(N(Cc2ccccc2)Cc2ccccc2)n1 [Compound 2108] | 4.8 ± 2.0 |  |  | Number of cells having neurites with a length at least two times the diameter of each cell/total number of cells (1 mM): 13.5 ± 0.1%
29 | CN(C(=O)c1ccccc1)c1ccnc(N2CCC(N(C)C)CC2)n1 [Compound 2148] | 4.5 ± 1.3 | 4.2 ± 1.2 |  | 
30 | CN(C(=O)c1ccccc1)c1ccnc(N2CCC(NC(=O)c3ccccc3)CC2)n1 [Compound 2174] |  |  |  | Number of cells having neurites with a length at least two times the diameter of each cell/total number of cells (0.01 mM): 2.5 ± 1.0%
31 | CN(C(=O)c1ccccc1)c1ccnc(NC2CCNCC2)n1 [Compound 2188] |  | 2.4 ± 0.9 | 3.8 ± 1.1 | 
32 | CN(C(=O)c1ccc(NC(=O)c2ccccc2)cc1)c1ccnc(N2CCC(c3ccccc3)CC2)n1 [Compound 2194] |  | 9.5 ± 3.5 | 7.6 ± 2.8 | 
33 | CN(C(=O)c1ccccc1)c1ccnc(NC2CCN(C(=O)c3ccccc3)CC2)n1 [Compound 2202] |  | 2.2 ± 2.0 |  | 
34 | CN(C(=O)c1ccccc1)c1ccnc(N2CCC(OC(=O)c3ccccc3)CC2)n1 [Compound 2226] | 6.4 ± 3.3 | 15.4 ± 3.9 |  | 
35 | CN1CCN(C(=O)N(C)c2ccnc(N3CCC(c4ccccc4)CC3)n2)CC1 [Compound 2234] | 5.1 ± 3.2 | 5.7 ± 2.8 |  | 
36 | CCCCNC1CCN(c2nccc(N(C)C(=O)c3ccccc3)n2)CC1 [Compound 2260] | 2.2 ± 0.3 | 2.3 ± 0.5 |  | 
